Assay results reported in article PMC5931107, “Clinical pharmacodynamic/exposure characterisation of the multikinase inhibitor ilorasertib (ABT-348) in a phase 1 dose-escalation trial” (British Journal of Cancer, 2018).
Marks after values point to notes of the source that are not given here.

Columns and labels:
[1] = Plasma pharmacokinetics, Arm I (oral QD), phase 1 trial; type: in vivo, human; conditions: for AUC(0-t): AUCt
Description: Pharmacokinetics of ilorasertib were evaluated in the dose-escalation cohort on blood samples that were collected on cycle 1 days 1 and 15. Parameters determined: Cmax, time to Cmax (Tmax), terminal phase elimination half-life (t1/2), clearance, apparent oral clearance (CL/F), and area under the plasma concentration-time curve from time 0 to time of last measurable concentration (AUCt) and from time 0 to infinity (AUC∞). For Arm I, blood samples were collected prior to dosing and at 0.5, 1, 2, 3, 4, 6, 8, 10 or 12, and 24 h after dosing on cycle 1 days 1 and 15; of note, for institutions not able to collect the 10- or 12-h post-dose sample, the 24-h sample was replaced with 22-h and 28-h post-dose samples. In Arm II, for the first dose, blood samples were collected pre-dose and at 1, 2, 3, and 4 h post-dose on cycle 1 days 1 and 15; for the second dose, samples were collected pre-dose and at 1, 2, 3, 4, 18, and 24 h after second dose on cycle 1 days 1 and 15. In Arm III, blood samples were collected prior to infusion, at 1 h 55 min (just before end of infusion), and at 0.5, 1, 2, 4, 6, 8, 10, and 24 h after end of infusion on cycle 1 days 1 and 15; here also, for institutions not able to collect the 8-h or 10-h after-end-of-infusion samples, the 24-h sample was replaced with 22-h and 28-h post-dose samples. The liquid chromatography (LC)-mass spectrometry (MS)/MS method was developed and validated in the Bioanalysis Department of AbbVie. Fifty microliter of human plasma (K2EDTA as anticoagulant) was fortified with 300 μL of deuterium-stable labelled internal standard and mixed well. A HybridSPE precipitation plate (50 mg/96 wells, Supelco Analytical, Munich, Germany) was used to directly load and elute (under slight vacuum) the fortified samples into a clean collection plate. Samples were dried before reconstitution with 100 μL of 20/80 (v/v) acetonitrile/water, and injected for LC-MS/MS analysis. A Halo C8 (Wilmington, DE, USA; 2.7 μm, 2.1 × 30 mm) was used on an Agilent 1290 Infinity UPLC pump (Agilent Technologies, Santa Clara, CA) to carry out the separation. An isocratic condition with 25/75/0.1 (v/v/v) acetonitrile/water/98% formic acid was used as the mobile phase. The flow rate was set to be 0.6 mL/min. An MPS 3 C ([…] Ruhr, Germany) autosampler was used to introduce samples onto the UPLC system. An API 4000 mass spectrometer (Applied Biosystems, Foster City, CA) was used in the multiple reactions monitoring mode for the detection and quantitation of analyte. Descriptive statistics were used for demographic variables. The numbers and percentages of patients with treatment-emergent AEs (TEAEs) were tabulated using the Medical Dictionary for Regulatory Activities version 16.0 system organ class and preferred term, and further classified according to CTCAE version 4.0 criteria. The safety data set included all patients who received one or more doses of ilorasertib. The pharmacokinetic data set included all patients who received one or more doses of ilorasertib and had one or more pharmacokinetic samples. Values for pharmacokinetic parameters were determined using non-compartmental methods, with data analysed separately for each arm. A repeated measures analysis was performed for Tmax and dose-normalised Cmax, AUCt, and AUC∞. The model included random effects for patient and fixed effects for dose level, day, and the interaction of dose level and day. To assess effects of exposure on pharmacodynamic biomarkers, Cmax was employed as the directly measured marker of exposure for the rapid changes in DBP and PlGF pre-steady-state, while AUC∞ reflected exposure variability at the time of post-multiple-dose skin biopsy. Descriptive statistics were used to summarise ECOG performance status. The efficacy data set included all patients who received one or more doses of ilorasertib.

Aurora B (Y156H) = tested on: Aurora B (Y156H); set-up: method as in PMID 22935731; conditions: Y156H mutant, 1 mM ATP; read-out: Biochemical IC50 (95% confidence limits); cited from earlier work

In the case of Nc1ncc(-c2cnn(CCO)c2)c2scc(-c3ccc(NC(=O)Nc4cccc(F)c4)cc3)c12 [ilorasertib, Ilorasertib], the “t1/2 (harmonic mean)” value ([1]; Arm I PO QD all doses, day 1, N=21) is reported as 12.2 ± 6.9^d h, the half-life ([1]; human, in vivo, Mean t1/2) is reported as about 12 h and the Tmax ([1]; human, in vivo, Time of peak plasma concentration) is reported as about 4 h. For the same compound, the “Dose proportionality of exposure (Cmax and AUC)” value ([1]; human, in vivo, iv) was “approximately dose proportional”, the “t1/2 (harmonic mean)” value ([1]; human, in vivo, po, 10 mg) was […] and the half-life ([1]; human, in vivo, po, 10 mg, t1/2 (harmonic mean)) was 11.7 ± 1.4 h. For the same compound, the AUCt ([1]; human, in vivo, po, 20 mg) was 1.76 (3.23, 0.29) μg•h/mL, the “AUC∞” value ([1]; human, in vivo, po, 20 mg) was 1.46 (2.41, 0.51) μg•h/mL and the Cmax ([1]; human, in vivo, po, 20 mg) was 0.08 (0.14, 0.02) μg/mL. For the same compound, the Tmax ([1]; human, in vivo, po, 20 mg) was 5.0 (4.0, 6.0) h, the AUC(0-t) ([1]; human, in vivo, po, 20 mg) was 1.01 µg·h/mL and the AUC(0-inf) ([1]; human, in vivo, po, 20 mg) was 2.26 µg·h/mL. The Cmax ([1]; human, in vivo, po, 20 mg, Cmax) was […], the Tmax ([1]; human, in vivo, po, 20 mg, Tmax) was 5 h and the AUCt ([1]; human, in vivo, po, 40 mg) was 1.15 µg·h/mL. The “AUC∞/dose” value ([1]; human, in vivo, po, 40 mg) was 41.0 ng·h/mL/mg, the CL/F ([1]; human, in vivo, po, 40 mg) was 24.4 L/h and the AUC(0-t) ([1]; human, in vivo, po, 40 mg) was 0.64 µg·h/mL. For the same compound, the AUC(0-inf) ([1]; human, in vivo, po, 40 mg) was 1.64 µg·h/mL, the Tmax ([1]; human, in vivo, po, 40 mg, Tmax) was 8 h and the half-life ([1]; human, in vivo, po, 40 mg, t1/2 (harmonic mean)) was 11.5 h. For the same compound, the AUCt ([1]; human, in vivo, po, 80 mg) was 1.59 ± 1.04 µg·h/mL, the “AUC∞” value ([1]; human, in vivo, po, 80 mg) was 2.75 ± 2.15 µg·h/mL and the Cmax ([1]; human, in vivo, po, 80 mg) was […]. For the same compound, the “t1/2 (harmonic mean)” value ([1]; human, in vivo, po, 80 mg) was 16.8 ± 2.8 h, the AUC(0-t) ([1]; human, in vivo, po, 80 mg) was 1.9 ± 1.1 µg·h/mL and the AUC(0-inf) ([1]; human, in vivo, po, 80 mg) was 2.82 ± 1.54 µg·h/mL. The Cmax ([1]; human, in vivo, po, 80 mg, Cmax) was 0.22 ± 0.1 µg/mL, the Tmax ([1]; human, in vivo, po, 80 mg, Tmax) was 4 ± 2 h and the half-life ([1]; human, in vivo, po, 80 mg, t1/2 (harmonic mean)) was 16 ± 1.8 h. For the same compound, the AUCt ([1]; human, in vivo, po, 120 mg) was 2.25 ± 0.61 µg·h/mL, the “AUC∞” value ([1]; human, in vivo, po, 120 mg) was 4.31 ± 2.38^c μg•h/mL and the Cmax ([1]; human, in vivo, po, 120 mg) was 0.25 ± 0.14 µg/mL. The Tmax ([1]; human, in vivo, po, 120 mg) was 4.1 ± 2.2 h, the AUC(0-t) ([1]; human, in vivo, po, 120 mg) was 3.6 ± 2.5 µg·h/mL and the AUC(0-inf) ([1]; human, in vivo, po, 120 mg) was 5.4 ± 2.62 µg·h/mL. For the same compound, the Cmax ([1]; human, in vivo, po, 120 mg, Cmax) was 0.49 ± 0.33 µg/mL, the Tmax ([1]; human, in vivo, po, 120 mg, Tmax) was 3.8 ± 2.2 h and the “AUC∞” value ([1]; human, in vivo, po, 140 mg) was 4.13 (4.96, 3.31)^a μg•h/mL. For the same compound, the Cmax ([1]; human, in vivo, po, 140 mg) was 0.33 ± 0.19 µg/mL, the Tmax ([1]; human, in vivo, po, 140 mg) was 10.1 ± 12.3 h and the “t1/2 (harmonic mean)” value ([1]; human, in vivo, po, 140 mg) was 15.8 ± 23.6 h. For the same compound, the AUC(0-inf) ([1]; human, in vivo, po, 140 mg) was 5.4 ± 1.8 µg·h/mL, the Cmax ([1]; human, in vivo, po, 140 mg, Cmax) was 0.24 ± 0.13 µg/mL and the half-life ([1]; human, in vivo, po, 140 mg, t1/2 (harmonic mean)) was 10.1 h. For the same compound, the Tmax ([1]; human, in vivo, po, 180 mg) was 2.0 h, the “t1/2 (harmonic mean)” value ([1]; human, in vivo, po, 180 mg) was 11.6 h and the Tmax ([1]; human, in vivo, po, 180 mg, Tmax) was 4 ± 2 h. For the same compound, the half-life ([1]; human, in vivo, po, 180 mg, t1/2 (harmonic mean)) was 9.5 ± 2.7 h, the Tmax ([1]; human, in vivo, po, Tmax) was 4.2 ± 1.8 h and the half-life ([1]; human, in vivo, po, t1/2 (harmonic mean)) was 14 ± 4 h. The IC50 (Aurora B (Y156H)) was […].
